Source: article PMC5594551, “Heterogeneous drug penetrance of veliparib and carboplatin measured in triple negative breast tumors” (Breast Cancer Research : BCR, 2017)
Where “and” joins values, the source holds several entries; their conditions need not be identical. Equal entries are not always repeated.

What was measured:
[1] = Carboplatin plasma PK in patients of phase 1 trial (three-compartment model); assay type: in vivo
Experimental: Carboplatin and platinum adducts were determined in a limited number of blood samples from a previously presented phase 1 clinical trial (NCT02358200). […] In the case of grade 3 or grade 4 toxicity, carboplatin and/or talazoparib doses were held until below grade 1 and resumed at a lower dose level. Blood samples were obtained from a limited number of patients during cycle 1 day 1 (prior to talazoparib dosing) and cycle 2 day 1 pre-dose and up to 24 h post dose, and PBMCs were derived at day 15 post dose, DNA was extracted as described in Additional file 1d and platinum adducts were quantified by ICP-MS (Additional file 1b).
A three-compartment model best described carboplatin in plasma and no variability between patients was observed (Additional file 1: Figure S12 and Table S2). In further analyses, we assumed that the carboplatin plasma PK profile in the other 16 patients was similar to that the first 3 patients: in these patients glomerular filtration rate (GFR) ranged from 60 to 151 mL/min and BSA values ranged from 1.58 to 2.0 m^2. […] [34].
Supplementary Table 2: PK patients estimates carboplatin and platinum adducts Structural model PK Estimat RS
Inter-individual variability on Platinum adduct formation (RPT) 317% proportional residual error plasma carboplatin 28% 26 […]
proportional residual error adduct formation 110% 6%
Platinum adduct formation:
CL=clearance, V=volume of distribution, KA= rate of absorption, RPT= ratio of carboplatin adduct formation, KPT= rate of carboplatin adduct formation, gBRCA = germline BRCA carrier […]
(also on this page, place not known: ( )adductsC−×× plasmaCRPT KPT=dt dCadducts)
(1 picture or pasted object on this page, not shown here)

[2] = Carboplatin quantified by LC-MS in mouse plasma and TNBC xenograft tissue; assay type: in vivo, beige SCID mice
Experimental: Forty-one beige DF mice with severe combined immunodeficiency (SCID) (Fox Chase, strain R035948:1) were implanted with 10^6 MDA-MB-231 (N = 10), HCC70 N = 21) or MDA-MB-436 (N = 10) TNBC cells obtained from the ATCC bilaterally in the mammary fat pads (Fig. 1). When the TNBC xenograft tissue size exceeded 200 mm^3, the mice were randomized across the treatment cohorts. Animals were randomized into veliparib low dose (20 mg/kg), veliparib high dose (60 mg/kg) or placebo + C, introduced via oral gavage three times daily for 3 days (all but the two DCE-MRI study mice). Carboplatin at 60 mg/kg was administered intravenously on day 1 and day 2. […]
Thirty-nine mice were euthanized approximately 3 h after the last dose of veliparib and 24 h after the last dose of carboplatin; two mice used in the DCE-MRI pilot were euthanized 1.5 h after single-dose administration of veliparib and carboplatin (Fig. 1). […] A separate fresh-frozen portion of each tissue per animal was ground for quantification of veliparib and carboplatin by LC-MS. […]
Plasma samples (50 μl ) were prepared using protein precipitation with acetonitrile. […] Volume and weight of the pulverized tumor was determined. […]
Veliparib/carboplatin quantification: […]
Concentration of veliparib in tissues were calculated in mg/g and transferred to mg/L by estimating the average density of the livers, muscles and tumors. […]

PARP = conditions: read-out: PARP trapping IC50; cited from earlier work
MDA-MB-436 = conditions: MDA-MB-436, BRCA1-mutated; ref [23], [25]; cited from earlier work
[3] = parameters: method as in PMID 19526240; conditions: ref [32]; cited from earlier work

Compound	Half-life carboplatin in plasma [1] [h]	Q [1] [L/h]	Q2 [1] [L/h]	V1 [1] [L]	V2 [1] [L]	CLday15 ([1]; day 15) [L/h]	CLday1 ([1]; single agent day 1) [L/h]	Carboplatin in TNBC xenograft tissues ([2]; 24 h after administration, MALDI-MSI and LC-MS)	Median conc. (RSE %) ([2]; plasma, 0.6 h after carboplatin 60 mg/kg intravenously, LC-MS)	IC50 (PARP) [µM]	Sensitivity in vitro (MDA-MB-436)	Protein binding capacity in human plasma [3] [%]
N.N.O=C([O-])C1(C(=O)[O-])CCC1.[Pt+2] [carboplatin]	2.1	0.324	16.7	0.935	52.8	5.33	5.2	undetectable	24 mg/L and 24 (20) mg/L			
C[C@]1(c2nc3c(C(N)=O)cccc3[nH]2)CCCN1 [veliparib]										57.4	sensitivity	51
